Experimental findings from patent US9073821B2, “Hydroxamic acid derivative” (priority 2010, dated 2015) are described below.

One assay deals with Pseudomonas aeruginosa LpxC enzyme (Pseudomonas aeruginosa (strain ATCC 15692 / DSM 22644 / CIP 104116 / JCM 14847 / LMG 12228 / 1C / PRS 101 / PAO1), UniProt P47205). The experiment in a line: biochemical. It is filed as biochemical. The note with it: class symbols A/B/C by IC50; Table 3; read-out: Enzyme inhibitory activity (inhibitory activity on Pseudomonas aeruginosa LpxC enzyme).
Turning to `CN(C(=O)c1ccc(C#Cc2ccc(CN3CCCOCC3)cc2)cc1)C(C)(C(=O)NO)C(=O)NCc1ccccn1` (stereo not drawn) [Compound 521, N-hydroxy-2-methyl-2-{methyl[(4-{[4-(1,4-oxazepan-4-ylmethyl)phenyl]ethynyl}phenyl)carbonyl]amino}-N′-(pyridin-2-ylmethyl)propanediamide], the IC50 is less than 10 nM. Still for that read-out and setting: the value for `CNC(=O)C(C(=O)NO)N(C)C(=O)c1ccc(C#CC2CC2)cc1` (stereo not drawn) [Compound 503, 2-[{[4-(cyclopropylethynyl)phenyl]carbonyl}(methyl)amino]-N-hydroxy-N′-methylpropanediamide] was greater than 100 nM; that for `CCO/N=C/c1ccc(C#Cc2ccc(C(=O)N(C)C(C(=O)NC)C(=O)NO)cc2)o1` (stereo not drawn) [Compound 501, 2-[{[4-({5-[(E)-(ethoxyimino)methyl]furan-2-yl}ethynyl)phenyl]carbonyl}(methyl)amino]-N-hydroxy-N′-methylpropanediamide] was less than 10 nM. In the case of `CCOC1CN(Cc2ccc(C#Cc3ccc(C(=O)N(C)C(C(=O)NC)C(=O)NO)cc3)cc2Cl)C1` (stereo not drawn) [Compound 579, 2-[{[4-({3-chloro-4-[(3-ethoxyazetidin-1-yl)methyl]phenyl}ethynyl)phenyl]carbonyl}(methyl)amino]-N-hydroxy-N′-methylpropanediamide], the IC50 is less than 10 nM.

With `CCOC1CN(Cc2ccc(C#Cc3ccc(C(=O)N(C)C(C(=O)NC)C(=O)NO)cc3)c(C(F)(F)F)c2)C1` (stereo not drawn) [Compound 574, 2-[{[4-({4-[(3-ethoxyazetidin-1-yl)methyl]-2-(trifluoromethyl)phenyl}ethynyl)phenyl]carbonyl}(methyl)amino]-N-hydroxy-N′-methylpropanediamide], the IC50 was less than 10 nM.

The assay is the same for the next values; noted with them: inhibitory activity on Pseudomonas aeruginosa LpxC enzyme, class symbols A/B/C; read-out: Enzyme inhibitory activity.
For the molecule `CNC(=O)C(C(=O)NO)N(C)C(=O)c1ccc(C#Cc2cccc(CN3CCOCC3)c2)cc1` (stereo not drawn) [Compound 375, N-hydroxy-N′-methyl-2-{methyl[(4-{[3-(morpholin-4-ylmethyl)phenyl]ethynyl}phenyl)carbonyl]amino}propanediamide], the IC50 is 10 to 100 nM.

Consider `CNC(=O)C(C(=O)NO)N(C)C(=O)c1ccc(OC(F)(F)C(F)F)cc1` (stereo not drawn) [Compound 47, N-hydroxy-N′-methyl-2-{methyl[4-(1,1,2,2-tetrafluoroethoxy)benzoyl]amino}propanediamide], for which the IC50 is greater than 100 nM. Consider `CNC(=O)C(C(=O)NO)N(C)C(=O)c1ccc(-c2c(F)cccc2F)cc1` (stereo not drawn) [Compound 233, 2-{[(2′,6′-difluorobiphenyl-4-yl)carbonyl](methyl)amino}-N-hydroxy-N′-methylpropanediamide], for which the IC50 is 10 to 100 nM. Regarding `CNC(=O)C(C(=O)NO)N(C)C(=O)c1ccc(-c2ccc3c(c2)cc(CN2CCOCC2)n3C)cc1` (stereo not drawn) [Compound 46, N-hydroxy-N′-methyl-2-(methyl {4-[1-methyl-2-(morpholin-4-ylmethyl)-1H-indol-5-yl]benzoyl}amino)propanediamide], the IC50 fell in the range of 10 to 100 nM. With `CNC(=O)C(C(=O)NO)N(C)C(=O)c1ccc(C#Cc2ccn(C)c2)cc1` (stereo not drawn) [Compound 424, N-hydroxy-N′-methyl-2-[methyl({4-[(1-methyl-1H-pyrrol-3-yl)ethynyl]phenyl}carbonyl)amino]propanediamide], the IC50 fell in the range of 10 to 100 nM. Same read-out and setting: under `CNC(=O)C(C(=O)NO)N(C)C(=O)c1ccc(-n2cccc2)cc1` (stereo not drawn) [Compound 307, N-hydroxy-N′-methyl-2-(methyl {[4-(1H-pyrrol-1-yl)phenyl]carbonyl}amino)propanediamide] stands greater than 100 nM. With `O=C(NC(C(=O)NO)C(=O)NO)c1ccc(-c2ccccc2)cc1` [Compound 109, 2-[(biphenyl-4-ylcarbonyl)amino]-N,N′-dihydroxypropanediamide], the IC50 lay in the range of 10 to 100 nM. Consider `CNC(=O)C(C(=O)NO)N(C)C(=O)c1ccc(-c2ccc(OCCCN3CC(OC)C3)cc2)cc1` (stereo not drawn) [Compound 276, N-hydroxy-2-[({4′-[3-(3-methoxyazetidin-1-yl)propoxy]biphenyl-4-yl}carbonyl)(methyl)amino]-N′-methylpropanediamide], for which the IC50 is less than 10 nM. Still for that read-out and setting: under `CCCCCCCCOc1ccc(C(=O)N(C)C(C(=O)NC)C(=O)NO)cc1` (stereo not drawn) [Compound 25, N-hydroxy-N′-methyl-2-{methyl[4-(octyloxy)benzoyl]amino}propanediamide] stands 10 to 100 nM. With `CNC(=O)C(C(=O)NO)N(C)C(=O)c1ccc(-c2ccc(OC(F)F)cc2)cc1` (stereo not drawn) [Compound 51, 2-[{[4′-(difluoromethoxy)biphenyl-4-yl]carbonyl}(methyl)amino]-N-hydroxy-N′-methylpropanediamide], the IC50 is less than 10 nM. The same measure, in the same setting: under `CNC(=O)C(C(=O)NO)N(C)C(=O)c1ccc(N2CC(c3ccccc3)C2)cc1` (stereo not drawn) [Compound 249, N-hydroxy-N′-methyl-2-{methyl[4-(3-phenylazetidin-1-yl)benzoyl]amino}propanediamide] stands 10 to 100 nM; under `O=C(NC(C(=O)NO)C(=O)NCc1ccccc1)c1ccc(-c2ccc(OCCO)cc2)cc1` (stereo not drawn) [Compound 120, N-benzyl-N′-hydroxy-2-({[4′-(2-hydroxyethoxy)biphenyl-4-yl]carbonyl}amino)propanediamide], less than 10 nM. As for `CNC(=O)C(NC(=O)c1ccc(-c2ccc(OCCOCCO)cc2)cc1)C(=O)NO` (stereo not drawn) [Compound 14, N-hydroxy-2-[({4′-[2-(2-hydroxyethoxy)ethoxy]biphenyl-4-yl}carbonyl)amino]-N′-methylpropanediamide], the IC50 is less than 10 nM. On the same count and under the same terms, under `Cc1cc(CNC(=O)C(NC(=O)c2ccc(-c3ccc(OCCO)cc3)cc2)C(=O)NO)no1` (stereo not drawn) [Compound 133, N-hydroxy-2-({[4′-(2-hydroxyethoxy)biphenyl-4-yl]carbonyl}amino)-N′-[(5-methyl-1,2-oxazol-3-yl)methyl]propanediamide] stands less than 10 nM; under `CNC(=O)C(C(=O)NO)N(C)C(=O)c1ccc(-c2ccc(N(C)CC3CC3)cc2)cc1` (stereo not drawn) [Compound 85, 2-[({4′-[(cyclopropylmethyl)(methyl)amino]biphenyl-4-yl}carbonyl)(methyl)amino]-N-hydroxy-N′-methylpropanediamide], less than 10 nM. The same measure, in the same setting: the value for `CN(C(=O)c1ccc(-c2ccccc2)cc1)C(C(=O)NO)C(=O)NCc1cccnc1` (stereo not drawn) [Compound 177, 2-[(biphenyl-4-ylcarbonyl)(methyl)amino]-N-hydroxy-N′-(pyridin-3-ylmethyl)propanediamide] was 10 to 100 nM; that for `O=C(NC(C(=O)NO)C(=O)NCCc1ccccn1)c1ccc(-c2ccc(OCCO)cc2)cc1` (stereo not drawn) [Compound 151, N-hydroxy-2-({[4′-(2-hydroxyethoxy)biphenyl-4-yl]carbonyl}amino)-N′-[2-(pyridin-2-yl)ethyl]propanediamide] was less than 10 nM; that for `CNC(=O)C(C(=O)NO)N(C)C(=O)c1ccc(-c2ccc(NC)c(OC)c2)cc1` (stereo not drawn) [Compound 50, N-hydroxy-2-[{[3′-methoxy-4′-(methylamino)biphenyl-4-yl]carbonyl}(methyl)amino]-N′-methylpropanediamide] was 10 to 100 nM. For the molecule `CNC(=O)C(C(=O)NO)N(C)C(=O)c1ccc(CCc2ccc(CCN3CCOCC3)cc2)cc1` (stereo not drawn) [Compound 209, N-hydroxy-N′-methyl-2-{methyl[4-(2-{4-[2-(morpholin-4-yl)ethyl]phenyl}ethyl)benzoyl]amino}propanediamide], the IC50 was less than 10 nM. `CNC(=O)C(C(=O)NO)N(C)C(=O)c1ccc(-c2cccc(NC)c2)cc1` (stereo not drawn) [Compound 278, N-hydroxy-N′-methyl-2-(methyl {[3′-(methylamino)biphenyl-4-yl]carbonyl}amino)propanediamide]: the IC50 was 10 to 100 nM. Turning to `CNC(=O)C(C(=O)NO)N(C)C(=O)c1cnc(-c2ccc3c(c2)OCO3)c(F)c1` (stereo not drawn) [Compound 458, 2-[{[6-(1,3-benzodioxol-5-yl)-5-fluoropyridin-3-yl]carbonyl}(methyl)amino]-N-hydroxy-N′-methylpropanediamide], the IC50 was in the range of 10 to 100 nM.

Consider `CNC(=O)C(C(=O)NO)N(C)C(=O)c1ccc(C#Cc2ccc(CNCC(C)(C)C)cc2)cc1` (stereo not drawn) [Compound 329, 2-[({4-[(4-{[(2,2-dimethylpropyl)amino]methyl}phenyl)ethynyl]phenyl}carbonyl)(methyl)amino]-N-hydroxy-N′-methylpropanediamide], for which the IC50 is less than 10 nM.

Regarding `O=C(NC(C(=O)NO)C(=O)NCc1ccncc1)c1ccc(-c2ccc(OCCO)cc2)cc1` (stereo not drawn) [Compound 124, N-hydroxy-2-({[4′-(2-hydroxyethoxy)biphenyl-4-yl]carbonyl}amino)-N′-(pyridin-4-ylmethyl)propanediamide], the IC50 was less than 10 nM. Same read-out and setting: the value for `CNC(=O)C(C(=O)NO)N(C)C(=O)c1ccc(-c2ccc(CN(C)C(C)=O)cc2)cc1` (stereo not drawn) [Compound 239, 2-{[(4′-{[acetyl(methyl)amino]methyl}biphenyl-4-yl)carbonyl](methyl)amino}-N-hydroxy-N′-methylpropanediamide] was 10 to 100 nM; that for `CNC(=O)C(C(=O)NO)N(C)C(=O)c1ccc(-c2ccc(OCc3ccc(-c4nnn[nH]4)cc3)cc2)cc1` (stereo not drawn) [Compound 93, N-hydroxy-N′-methyl-2-{methyl[(4′-{[4-(1H-tetrazol-5-yl)benzyl]oxy}biphenyl-4-yl)carbonyl]amino}propanediamide] was 10 to 100 nM; that for `CNC(=O)C(C(=O)NO)N(C)C(=O)c1ccc(-c2cccc(OC)n2)cc1` (stereo not drawn) [Compound 296, N-hydroxy-2-[{[4-(6-methoxypyridin-2-yl)phenyl]carbonyl}(methyl)amino]-N′-methylpropanediamide] was greater than 100 nM. With `CNC(=O)C(C)(C(=O)NO)N(C)C(=O)c1ccc(-c2ccc(OCCCN3CCOCC3)cc2)cc1` (stereo not drawn) [Compound 350, N-hydroxy-N′,2-dimethyl-2-[methyl({4′-[3-(morpholin-4-yl)propoxy]biphenyl-4-yl}carbonyl)amino]propanediamide], the IC50 was less than 10 nM. The same measure, in the same setting: the value for `CNC(=O)C(C(=O)NO)N(CC(F)F)C(=O)c1ccc(-c2ccc(OCCCN3CCOCC3)cc2)cc1` (stereo not drawn) [Compound 225, 2-[(2,2-difluoroethyl)({4′-[3-(morpholin-4-yl)propoxy]biphenyl-4-yl}carbonyl)amino]-N-hydroxy-N′-methylpropanediamide] was less than 10 nM.
